Publication PMC12737022, “Evaluations of Sex Differences in Dosimetry in Rats Following Perfluorohexanesulfonamide (PFHxSA) Oral Exposure” (Toxics, 2025)

Columns and labels:
rat hepatocytes = assay: In vitro hepatocyte metabolic stability assay, rat hepatocytes; type: in vitro ADME; conditions: scaled from hepatocyte clearance at 1 μM
Description: In vitro evaluations of PFHxSA and PFHxS hepatocyte metabolic stability were performed in rat hepatocytes, as previously described. Also, human hepatocyte clearance data were obtained from an earlier study. Native PFHxSA was obtained from Alpha Chemistry (purity > 98.4%; Holbrook, NY, USA), and PFHxS was obtained from Ark Pharma Scientific Limited (purity > 95%; Cambridge, UK). Pooled, mixed-sex cryopreserved hepatocyte suspensions were employed in a substrate depletion approach, using a final assay concentration of 1 μM. […]
Targeted, quantitative analysis of in vitro hepatocyte metabolic stability and plasma protein binding assay samples was conducted on a Waters (Milford, MA, USA) Xevo-TQS micro ultra-high-performance liquid chromatography tandem mass spectrometry system (UPLC-MS/MS), modified with a PFAS analysis kit. Samples were analyzed in negative ion mode with UniSpray ionization. Samples were analyzed in triplicate, with a reference compound included to evaluate assay performance. […]
Intrinsic hepatic clearance (Clint) and fraction unbound in plasma (fup) were calculated from the experimental point estimate data as described in Dobreniecki et al.. […] Renal clearance was calculated using the glomerular filtration rate (a species-dependent constant) and the fraction unbound in blood (fub), estimated by adjusting the experimental fup for blood/plasma partitioning. […]

[1] = set-up: method as in Smeltz et al. [60]; conditions: ref Smeltz et al. [60], cited from earlier work; for fup (fraction unbound in plasma): Human plasma; for fub (fraction unbound in blood): Human

Row | SMILES | Clhep (hepatic clearance) (rat hepatocytes) [L/h] | fup (fraction unbound in plasma) [1] | fub (fraction unbound in blood) [1]
1 | O=S(=O)(O)C(F)(F)C(F)(F)C(F)(F)C(F)(F)C(F)(F)C(F)(F)F [PFHxS, perfluorohexane sulfonic acid] | 0 | 0.0009 ^1 | 0.0016 ^1
2 | NS(=O)(=O)C(F)(F)C(F)(F)C(F)(F)C(F)(F)C(F)(F)C(F)(F)F [PFHxSA, Perfluorohexanesulfonamide] | 0.0000449 | 0.0004 ^1 | 0.0007 ^1
